PubChem BioAssay AID789 (SRMLSC, 2007)
The source made the active and inactive calls. How the calls were made is not given here.

What was measured:
[1] = system: S. cerevisiae apl2Δ mutant growth inhibition; test: growth inhibition of apl2Δ yeast, dose response, selectivity assay for post-Golgi transport modulator project, S. cerevisiae, secondary screen, background strain comparison (AID 789)
[2] = as above; details: S. cerevisiae background (wild-type parent) strain growth inhibition

**Q.** For `O=C(c1ccco1)N1CCN(c2ncnc3c2[nH]c2ccccc23)CC1`, which IC50 [1] is on record?
**A.** > 10 µM (inactive)

**Q.** And the IC50 [2]?
**A.** > 10 µM

**Q.** What does the source list for `Cc1cccnc1Nc1nc(-c2ccccn2)cs1`?
**A.** IC50 [1]: > 10 µM (inactive); IC50 [2]: > 10 µM

**Q.** With `CCOC(=O)C(C)Oc1ccc2c(C)cc(=O)oc2c1C(C)=O` (stereo unspecified) as the compound, how does the IC50 [1] read?
**A.** > 10 µM (inactive)

**Q.** What about the IC50 [2] of the same compound?
**A.** > 10 µM

**Q.** With `Cc1ccc(S(=O)(=O)N2CC3CC(C2)c2cccc(=O)n2C3)cc1` (stereo unspecified) as the compound, how does the IC50 [1] read?
**A.** > 10 µM (inactive)

**Q.** What about the IC50 [2] of the same compound?
**A.** > 10 µM

**Q.** What does the source list for `Clc1cc(Br)ccc1OCCOCCN1CCOCC1`?
**A.** IC50 [1]: > 10 µM (inactive); IC50 [2]: > 10 µM

**Q.** Which results are given for `COc1cc2[nH]c(=S)n(CCCN3CCOCC3)c(=O)c2cc1OC`?
**A.** IC50 [1]: > 10 µM (inactive); IC50 [2]: > 10 µM

**Q.** With `Cc1c(C)c2cc(Cl)c(O)c(CN3CCN(C)CC3)c2oc1=O` as the compound, how does the IC50 [1] read?
**A.** > 10 µM (inactive)

**Q.** And the IC50 [2]?
**A.** > 10 µM

**Q.** What does the source list for `O=c1c2cccc3c2c(nn1CN1CCOCC1)-c1ccccc1-3`?
**A.** IC50 [1]: > 10 µM (inactive); IC50 [2]: > 10 µM

**Q.** Which IC50 [1] does the source give for `COc1cccc(C(=O)N2CCN(C3CCC(c4ccccc4)CC3)CC2)c1OC` (stereo unspecified) here?
**A.** 14.6 µM

**Q.** And the IC50 [2]?
**A.** 23.9 µM

**Q.** For `O=C(COc1ccc(Cl)cc1)Nc1ccc(N2CCN(C(=O)c3ccco3)CC2)cc1`, which IC50 [1] is on record?
**A.** > 10 µM (inactive)

**Q.** What about the IC50 [2] of the same compound?
**A.** > 10 µM

**Q.** Which results are given for `N#Cc1cn(-c2ccccc2)nc1-c1cc2ccccc2oc1=O`?
**A.** IC50 [1]: > 10 µM (inactive); IC50 [2]: > 10 µM

**Q.** Which IC50 [1] does the source give for `CC1CC(C)CN(CC(C)(C)NS(=O)(=O)c2ccc(Cl)cc2)C1` (stereo unspecified) here?
**A.** > 10 µM (inactive)

**Q.** What about the IC50 [2] of the same compound?
**A.** > 10 µM

**Q.** Which IC50 [1] does the source give for `CC1CCCCC1NC(=O)CSc1nnnn1-c1ccccc1` (stereo unspecified) here?
**A.** > 10 µM (inactive)

**Q.** And the IC50 [2]?
**A.** > 10 µM

**Q.** Which IC50 [1] does the source give for `COc1cccc(NC(=O)C2CCCN2C(=O)OCc2ccccc2)c1` (stereo unspecified) here?
**A.** > 10 µM (inactive)

**Q.** What about the IC50 [2] of the same compound?
**A.** > 10 µM

**Q.** Which IC50 [1] does the source give for `O=C(OCn1nnc2ccccc2c1=O)c1cn(-c2ccccc2)nc1-c1cccnc1` here?
**A.** > 10 µM (inactive)

**Q.** What about the IC50 [2] of the same compound?
**A.** > 10 µM

**Q.** Which results are given for `O=C(NC1CCN(Cc2ccccc2)CC1)C1COc2ccccc2O1` (stereo unspecified)?
**A.** IC50 [1]: > 10 µM (inactive); IC50 [2]: > 10 µM

**Q.** Which results are given for `CCSc1nnc(NC(=O)NCC(F)(F)F)s1`?
**A.** IC50 [1]: > 10 µM (inactive); IC50 [2]: > 10 µM

**Q.** With `CC1CN(CC(O)COc2ccc(C(C)C)cc2)CC(C)O1` (stereo unspecified) as the compound, how does the IC50 [1] read?
**A.** > 10 µM (inactive)

**Q.** And the IC50 [2]?
**A.** > 10 µM

**Q.** For `O=C(Nc1nc(-c2ccccn2)cs1)c1ncc(Cl)c(Cl)c1Cl`, which IC50 [1] is on record?
**A.** 19.3 µM (inactive)

**Q.** And the IC50 [2]?
**A.** 13.3 µM

**Q.** Which IC50 [1] does the source give for `CCCCOc1ccc(-c2ncc(C(=O)O)c(C)n2)cc1` here?
**A.** > 10 µM (inactive)

**Q.** What about the IC50 [2] of the same compound?
**A.** > 10 µM

**Q.** For `O=C(OCn1ncc(Br)c(Br)c1=O)c1ccc(F)cc1`, which IC50 [1] is on record?
**A.** > 10 µM (inactive)

**Q.** And the IC50 [2]?
**A.** 5.38 µM

**Q.** For `Cc1ccn2cc(-c3nonc3C)cc2c1`, which IC50 [1] is on record?
**A.** > 10 µM (inactive)

**Q.** And the IC50 [2]?
**A.** > 10 µM

**Q.** With `CCN1C(=O)c2ccc(C(=O)NCc3ccccc3)cc2C1=O` as the compound, how does the IC50 [1] read?
**A.** > 10 µM (inactive)

**Q.** And the IC50 [2]?
**A.** > 10 µM

**Q.** What does the source list for `Cc1ccc(SC(C)C(=O)Nc2ncn[nH]2)cc1` (stereo unspecified)?
**A.** IC50 [1]: > 10 µM (inactive); IC50 [2]: > 10 µM

**Q.** What does the source list for `O=C1OCC(CO)(CO)N=C1NNc1ccc(Cl)c(Cl)c1`?
**A.** IC50 [1]: 4.53 µM (inactive); IC50 [2]: 3.35 µM

**Q.** With `CC(C)c1ccc(C2C3CSCC=C3C(C#N)=C(N)C2(C#N)C#N)cc1` (stereo unspecified) as the compound, how does the IC50 [1] read?
**A.** 1.84 µM (inactive)

**Q.** What about the IC50 [2] of the same compound?
**A.** 0.843 µM

**Q.** For `Cc1cc(=O)[nH]c(SCC(=O)c2ccc(C)c(C)c2)n1`, which IC50 [1] is on record?
**A.** 6.63 µM (inactive)

**Q.** What about the IC50 [2] of the same compound?
**A.** 2.31 µM

**Q.** For `O=[N+]([O-])c1ccc(N2CCN(S(=O)(=O)c3ccc(Cl)cc3)CC2)cc1NCc1cccnc1`, which IC50 [1] is on record?
**A.** > 10 µM (inactive)

**Q.** What about the IC50 [2] of the same compound?
**A.** > 10 µM

**Q.** Which IC50 [1] does the source give for `O=C(OCn1ncc(Cl)c(Cl)c1=O)c1ccccc1Cl` here?
**A.** > 10 µM (inactive)

**Q.** What about the IC50 [2] of the same compound?
**A.** 16.6 µM

**Q.** For `CC1CC(C)CN(CCOc2ccc(Cl)cc2Cl)C1` (stereo unspecified), which IC50 [1] is on record?
**A.** > 10 µM (inactive)

**Q.** And the IC50 [2]?
**A.** > 10 µM

**Q.** Which results are given for `Clc1ccc(-c2n[nH]c3c2CCC3)cc1Cl`?
**A.** IC50 [1]: 2.74 µM (inactive); IC50 [2]: 1.81 µM

**Q.** With `Cc1cc(C)nc(NC(=O)CSc2nn(C)c(=S)s2)n1` as the compound, how does the IC50 [1] read?
**A.** > 10 µM (inactive)

**Q.** What about the IC50 [2] of the same compound?
**A.** > 10 µM

**Q.** Which IC50 [1] does the source give for `CC1=CC(C)(C)Nc2ccc(OC(=O)CN3C(=O)c4cccc5cccc(c45)C3=O)cc21` here?
**A.** > 10 µM (inactive)

**Q.** And the IC50 [2]?
**A.** > 10 µM
